Earlier results in patent US20210251893A1, “Compositions and Methods for Treating Ocular Diseases” (Ocular Therapeutix, Inc., priority 2020, published 2021).
Each block holds one compound with its values, some of them ahead of it.

Columns and labels:
FP prostanoid receptor = FP prostanoid receptor (Homo sapiens, UniProt P43088)
Chain of FP prostanoid receptor (P43088 whole entry): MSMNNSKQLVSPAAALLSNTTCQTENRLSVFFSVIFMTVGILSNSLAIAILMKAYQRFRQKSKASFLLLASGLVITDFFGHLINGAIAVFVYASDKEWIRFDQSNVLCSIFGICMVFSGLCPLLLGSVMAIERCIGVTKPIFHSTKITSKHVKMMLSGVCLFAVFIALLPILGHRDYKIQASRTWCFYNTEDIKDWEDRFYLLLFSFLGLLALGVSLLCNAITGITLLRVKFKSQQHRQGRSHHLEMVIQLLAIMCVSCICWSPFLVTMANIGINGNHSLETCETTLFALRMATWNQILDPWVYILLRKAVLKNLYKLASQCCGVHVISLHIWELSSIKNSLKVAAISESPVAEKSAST

SMILES: CC(C)OC(=O)CCC/C=C\C[C@@H]1[C@@H](/C=C/[C@@H](O)COc2cccc(C(F)(F)F)c2)[C@H](O)C[C@@H]1O [Travoprost]
- Affinity for the prostaglandin FP receptor (FP prostanoid receptor): high affinity

SMILES: O=C(O)CCC/C=C\C[C@@H]1[C@@H](/C=C/[C@@H](O)COc2cccc(C(F)(F)F)c2)[C@H](O)C[C@@H]1O [free acid of travoprost]
- Potency and selectivity for the FP prostanoid receptor (FP prostanoid receptor; compared to latanoprost): higher potency and greater selectivity

- Solubility in aqueous solutions: relatively low solubility
SMILES: CC(C)OC(=O)CCC/C=C\C[C@@H]1[C@@H](CC[C@@H](O)CCc2ccccc2)[C@H](O)C[C@@H]1O [Latanoprost]
